The values that follow come from patent US20250321225A1, “SKIN DAMAGE ORGANOID MODEL AND DRUG SCREENING METHOD USING THE SAME” (KANGSTEM BIOTECH CO., LTD., priority 2023, published 2025).

Common to all, as to format: cell-based, human
The test system of one experiment is normal hair follicles. Description: Hair follicle growth in normal hair follicle organoid. Conditions: for hair follicle length compared to the control: 14 days after drug treatment. An excerpt:
The hair follicle growth was compared after treatment with each of minoxidil, which is known to promote hair follicle growth, and dihydrotestosterone (DHT), which is an endogenous hormone causing hair loss.

The subject of a further experiment is hair follicles in SkOs. Description: Hair follicle damage in sUV-exposed SkOs. The protocol:
The effects of sUV exposure on skin appendages in the dermis of SkOs were investigated. As a result, it was confirmed that the expression of a KRT5 marker constituting the outer layer of a hair follicle in SkOs was reduced. […] Accordingly, to thoroughly compare the extent of hair follicle damage, hair follicles were isolated from each skin organoid and subjected to qRT-PCR analysis. […] To determine the optimal concentration of UCB-Exos for alleviating SkO damage by sUV, SkOs were treated with different concentrations of UCB-Exos two hours after sUV exposure, and this procedure was repeated three times (FIG. 5A). […] The effect of UCB-Exos on hair follicles in SkOs was investigated. In the hair follicles, apoptosis (cleaved caspase-3^+) was reduced, and the number of regenerating cells (Ki67^+) increased (FIGS. 6A and 6B). In addition, keratinocytes and fibroblasts in the hair follicles aged by sUV are known to secrete MMPs and inflammatory cytokines known as a senescence-associated secretory phenotype (SASP).

The next experiment relates to NF-κB. In words: IκB/NF-κB signaling in sUV-exposed SkOs (Western blotting, immunofluorescence). An excerpt: NF-κB is known to play an important role in regulating the expression of immune mediators. […] When activated by external stimuli such as inflammatory cytokines or cellular stress, the IκBα protein is phosphorylated and subsequently degraded, releasing NF-κB from the NF-κB-IκB complex. The released NF-κB translocates to the cell nucleus to promote the transcription of genes involved in inflammation and induce cytokine production. Considering the above, the present inventors investigated whether IκB-dependent NF-κB activation mediates the inflammatory response in hair follicles.
This caused the disruption of the NF-κB-IκB complex which activated NF-κB and caused it to translocate to the nucleus, as evidenced by increased NF-κB expression in the nuclear compartment of SkOs exposed to sUV. After treating the sUV-exposed SkOs with UCB-Exos, it was observed that both IκBα phosphorylation and degradation decrease, and nuclear translocation of NF-κB was inhibited (FIGS. 7A and 7B). […] Generally, hair follicles are composed of keratinocytes and fibroblasts, both of which play an important role in skin inflammatory responses. […] Meanwhile, the epidermis of SkOs, which is the uppermost layer exposed to sUV, was also inflamed, which may extend to the dermis and indirectly damage hair follicles (FIGS. 7G and 7H).
To evaluate the direct effect of UCB-Exos alleviating sUV-induced damage by NF-κB activation, the present inventors treated a sUV-damaged organoid with the NF-κB inhibitor, BAY11-7082. BAY11-7082 is known to inhibit the translocation of NF-κB to the nucleus by inhibiting the degradation of IκBα unit, thereby preventing further activation of NF-κB signaling.
As expected, it was confirmed that IL-6 expression was positively correlated with the expression level of NF-κB (FIGS. 8A and 8B).
(In general: A western blot detects proteins with antibodies after separation by electrophoresis.)

Experiment [1] deals with inflammatory cytokines, such as IL-6, TNF-α, and IL-1β. Description: Inflammatory cytokine expression and secretion in sUV-exposed SkOs (qPCR, immunofluorescence, ELISA). As for the experimental part:
It is known that sUV irradiation causes the secretion of pro-inflammatory cytokines in skin tissue, leading to skin inflammation and subsequent skin damage. Accordingly, it was investigated whether sUV exposure can also affect hair follicles and induce an inflammatory response in the dermis of SkOs.
Furthermore, the secretion of inflammatory cytokines, such as IL-6, TNF-α, and IL-1β, increased by sUV exposure, was evaluated by ELISA.
For orientation: Quantitative PCR measures a nucleic acid by following its amplification.

Each structure is given as a SMILES string.

As to `Nc1cc(N2CCCCC2)nc(N)[n+]1[O-]` [minoxidil], in the experiment with normal hair follicles, the “hair follicle length compared to the control” value is “approximately 1.3 fold”.
On to `C[C@]12CCC(=O)C[C@@H]1CC[C@@H]1[C@@H]2CC[C@]2(C)[C@@H](O)CC[C@@H]12` [DHT, dihydrotestosterone], for which the “hair follicle length compared to the control” value with normal hair follicles is given as “approximately 0.7 fold”.
As to `Cc1ccc(S(=O)(=O)/C=C/C#N)cc1` [BAY11-7082], the “apoptosis / death rate in hair follicles” value in the experiment on hair follicles in SkOs (Example 6) is “reduced”. The “mRNA expression of ECM components associated with inflammatory cytokines and SASP” value with hair follicles in SkOs (hair follicles) is “dramatically reduced”. Also, in the experiment with NF-κB (Western blotting, Example 6), the IκBα degradation result is “inhibition”, the “NF-κB nuclear translocation / activation / levels” value is “reduced” and the “phosphorylated IκBα” value is recorded as “decreased”. For the same compound, in the experiment on NF-κB (immunofluorescence staining), the “NF-κB translocation to the nuclei in hair follicles” value is given as “significant decrease”. The “difference in IL-6 and TNF-α secretion between BAY11-7082-treated SkOs and UCB-Exos-treated SkOs” value in experiment [1] (ELISA) is recorded as “no significant difference”. Besides, the “IL-6 in the cytoplasm in hair follicles” value in experiment [1] (immunofluorescence staining) is “significant decrease”. Besides, the “hair follicle length compared to the control” value in the experiment with normal hair follicles is reported as “approximately 1.4 fold”. For the same compound, in the experiment on normal hair follicles (compared to the control), the “expression of genes (IGF-1, WNT3A) associated with hair growth promotion” value is “upregulated” and the “hair loss-associated genes (DKK1, TGFb-2)” value is “downregulated”.
